# Patent publication US20080300281A1, “Inhibition of p38 Kinase Activity Using Aryl and Heteroaryl Substituted Heterocyclic Ureas” (priority 1997, published 2008)
compound,measurement,value
"CC(C)(C)c1cc(NC(=O)Nc2cccc(Cl)c2Cl)c(-c2ccncc2)o1 [Entry 38, N-(2-(4-Pyridinyl)-5-tert-butyl-3-furyl)-N′-(2,3-dichlorophenyl)urea]",melting point,195 to 198 °C
